Experimental data published in patent publication US20170283862A1, “GENETIC TESTING FOR PREDICTING RESISTANCE OF KLEBSIELLA SPECIES AGAINST ANTIMICROBIAL AGENTS” (priority 2014, published 2017).

Test system: K. pneumoniae isolates
Assay: Gene dosage effects: AUC of normalized median coverage per gene, resistant vs susceptible isolates
Design: unit not given here
Conditions: best MIC break
Description: Since a potential reason for drug resistance is gene duplication, gene dose dependency was evaluated. For each sample the genomic coverage for each position was determined using BED Tools. Gene ranges were extracted from the reference assemblies NC_009648.gff and NC_016612.gff and the normalized median coverage per gene was calculated. To compare low- and high-resistance isolates the best area under the curve (AUC) value was computed.
To estimate the difference in coverage we calculated AUC values for the normalized median coverage per gene in the two groups.

[1] = gene KPN_00957: 1081235-1081342
[2] = gene KPN_01607: 1784144-1785004
[3] = gene KPN_01784: 1966562-1967182
[4] = gene KPN_02272: 2484450-2485832
[5] = gene KPN_03336: 3652949-3653470
[6] = gene KPN_04541: 4973659-4974345
[7] = gene KPN_01776: 1957110-1958672
[8] = gene KPN_01790: 1972135-1973631

| Molecule | BEST_BREAK [1] | BEST_BREAK [2] | BEST_BREAK [3] | BEST_BREAK [4] | BEST_BREAK [5] | BEST_BREAK (gene KPN_04540: 4971080-4973572) | BEST_BREAK [6] | BEST_BREAK (gene rmlC: 2715683-2716237) | BEST_BREAK (gene rmlC: 2723257-2723811) | BEST_BREAK (gene ygbI: 1783401-1784123) | BEST_BREAK [7] | BEST_BREAK [8] | BEST_BREAK (gene ygbJ: 1782199-1783101) | BEST_BREAK (gene ygbK: 1780922-1782187) | BEST_BREAK (gene KPN_00596: 673027-673989) | BEST_BREAK (gene KPN_01766: 1947966-1948751) | BEST_BREAK (gene KPN_01767: 1948966-1949805) | BEST_BREAK (gene KPN_01772: 1953630-1954052) | BEST_BREAK (gene KPN_01773: 1954090-1955208) | BEST_BREAK (gene stbA: 300128-300664) |
| --- | --- | --- | --- | --- | --- | --- | --- | --- | --- | --- | --- | --- | --- | --- | --- | --- | --- | --- | --- | --- |
| CC1(C)S[C@@H]2[C@H](NC(=O)[C@H](N)c3ccccc3)C(=O)N2[C@H]1C(=O)O [Ampicillin] | 128.1 | 128.1 | – | – | – | – | – | – | – | – | – | – | – | – | – | – | – | – | – | – |
| Amoxicillin/K Clavulanate | 64 | 8 | 32 | 64 | 32 | 32 | 32 | 64.1 | 64.1 | 8 | – | – | – | – | – | – | – | – | – | – |
| Ampicillin/Sulbactam | 32 | 64.1 | 64.1 | – | – | – | 64.1 | – | 64.1 | 64.1 | 64.1 | 64.1 | 64.1 | 64.1 | – | – | – | – | – | – |
| Gentamicin | 1 | 1 | 1 | – | – | – | – | – | – | – | 1 | – | – | – | 2 | – | – | – | – | – |
| Piperacillin/Tazobactam | 8 | 128 | 128 | 256.1 | 256 | – | 64 | – | 256.1 | 128 | 128 | 128 | 128 | 128 | – | 128 | 128 | 128 | 64 | 128 |
